Assays:
[1] = biological target: T1, UGT1A3 (Homo sapiens, UniProt P35503); experiment: Inhibition of raloxifene glucuronidation by recombinant UGT1A3 Supersomes; details: human; for activity at 15 min, 10 µM: inhibitor 10 μM; for activity at 15 min, 25 µM: inhibitor 25 μM; for activity at 15 min, 50 µM: inhibitor 50 μM
T1 sequence (P35503 29-534): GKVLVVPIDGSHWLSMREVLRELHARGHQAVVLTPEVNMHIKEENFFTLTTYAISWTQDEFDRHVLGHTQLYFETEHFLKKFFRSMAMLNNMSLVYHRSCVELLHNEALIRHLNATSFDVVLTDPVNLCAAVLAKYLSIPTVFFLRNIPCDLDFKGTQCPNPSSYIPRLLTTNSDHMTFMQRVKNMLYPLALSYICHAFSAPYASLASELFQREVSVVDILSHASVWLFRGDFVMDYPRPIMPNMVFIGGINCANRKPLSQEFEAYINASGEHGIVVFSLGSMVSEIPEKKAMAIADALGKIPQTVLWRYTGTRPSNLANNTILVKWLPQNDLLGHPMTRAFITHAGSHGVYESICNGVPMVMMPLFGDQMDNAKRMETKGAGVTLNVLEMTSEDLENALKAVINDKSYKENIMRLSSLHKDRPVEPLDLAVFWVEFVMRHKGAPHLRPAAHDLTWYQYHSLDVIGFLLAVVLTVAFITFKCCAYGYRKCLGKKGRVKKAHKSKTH
Procedure: (§1) Compounds were eluted using a binary solvent gradient system. Solvent A was water brought to pH 8 with NH4OH. Solvent B was methanol. Solvent flow rate was 1 ml/min and the column temperature was maintained at 50° C. Detection was at 280 nm. […] The system was then returned to the initial conditions and equilibrated for 3 min.

[2] = system: T2, UGT enzymes of human liver microsomes; experiment: Inhibition of 7-HFC glucuronidation in human liver microsomes; format: biochemical; details: for % of control metabolism (SD, n = 3), 7-HFC glucuronidation: 7-HFC 50 μM, human liver microsomes 100 μg/ml, 15 min
T2 construct: percentage of control metabolism, 7-HFC glucuronidation; percentage of control metabolism, 7-HFC glucuronidation

[3] = biological target: T3, UGT1A1 (Homo sapiens, UniProt P22309); experiment: Inhibition of raloxifene glucuronidation by recombinant UGT1A1 Supersomes; details: human; for activity at 15 min, 10 µM: inhibitor 10 μM; for activity at 15 min, 25 µM: inhibitor 25 μM; for activity at 15 min, 50 µM: inhibitor 50 μM
T3 sequence (P22309 26-533): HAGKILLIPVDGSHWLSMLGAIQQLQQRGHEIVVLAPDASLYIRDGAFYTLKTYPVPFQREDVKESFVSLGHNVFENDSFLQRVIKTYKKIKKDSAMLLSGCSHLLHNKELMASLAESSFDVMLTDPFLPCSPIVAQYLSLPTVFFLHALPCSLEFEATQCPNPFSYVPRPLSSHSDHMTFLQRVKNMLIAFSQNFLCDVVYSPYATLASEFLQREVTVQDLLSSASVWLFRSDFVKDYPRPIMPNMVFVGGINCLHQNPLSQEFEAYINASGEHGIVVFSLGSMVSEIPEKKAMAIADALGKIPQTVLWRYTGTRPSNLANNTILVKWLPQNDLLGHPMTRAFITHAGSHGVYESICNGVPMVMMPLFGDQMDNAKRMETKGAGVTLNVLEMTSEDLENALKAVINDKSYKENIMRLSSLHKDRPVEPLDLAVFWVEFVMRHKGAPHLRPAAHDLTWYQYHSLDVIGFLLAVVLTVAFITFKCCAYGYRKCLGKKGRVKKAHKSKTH
Procedure: as §1

[4] = system: UGT enzymes of pooled human jejunum microsomes; experiment: Inhibition of estradiol (E2) glucuronidation in pooled human jejunum microsomes; format: biochemical; details: jejunum HJ61, E2 50 μM
Text: Compounds were eluted using a binary solvent gradient system where solvent A was dilute phosphoric acid (pH 3) and solvent B was 80:20 acetonitrile-methanol. […] Detection was at 280 nm.

[5] = system: UGT enzymes of human liver microsomes; experiment: Inhibition of raloxifene glucuronidation (G1, G2) in human liver microsomes; format: biochemical; details: for % of control metabolism (SD, n = 3), raloxifene glucuronide G1 / % of control metabolism (SD, n = 3), raloxifene glucuronide G2: human liver microsomes 250 μg/ml, 15 min
Text: Compounds were eluted using a binary solvent gradient system. […] Solvent B was methanol. […] Detection was at 280 nm.

[6] = system: T2, UGT enzymes of human liver microsomes; experiment: Kinetic and Ki studies of inhibitors of 7-HFC glucuronidation in human liver microsomes; format: biochemical; details: 7-HFC 20-500 μM
[7] = Supersomes with recombinant human UGT1A3, pH 7.5, probe raloxifene 50 μM, formation of glucuronide G1, % of control metabolism, raloxifene G1, UGT1A3
[8] = Supersomes with recombinant human UGT1A3, pH 7.5, probe raloxifene 50 μM, formation of glucuronide G2, % of control metabolism, raloxifene G2, UGT1A3
[9] = recombinant UGT1A3 Supersomes, pH 7.5, probe raloxifene 50 μM (formation of glucuronide G1), Inhibition of raloxifene glucuronidation, G1, UGT1A3, G1, raloxifene 50 μM, 250 μg/ml Supersomes, 1 mM UDPGA, 15 min
[10] = recombinant UGT1A3 Supersomes, pH 7.5, probe raloxifene 50 μM (formation of glucuronide G2), Inhibition of raloxifene glucuronidation, G2, UGT1A3, G2, raloxifene 50 μM, 250 μg/ml Supersomes, 1 mM UDPGA, 15 min
[11] = Supersomes with recombinant human UGT1A1, pH 7.5, probe raloxifene 50 μM, formation of glucuronide G1, % of control metabolism, raloxifene G1, UGT1A1
[12] = Supersomes with recombinant human UGT1A1, pH 7.5, probe raloxifene 50 μM, formation of glucuronide G1, Inhibition of raloxifene glucuronidation, G1, UGT1A1, G1, raloxifene 50 μM, 250 μg/ml Supersomes, 1 mM UDPGA, 15 min
[13] = Supersomes with recombinant human UGT1A1, pH 7.5, probe raloxifene 50 μM, formation of glucuronide G2, % of control metabolism, raloxifene G2, UGT1A1
[14] = recombinant UGT1A1 Supersomes, pH 7.5, probe raloxifene 50 μM (formation of glucuronide G2), Inhibition of raloxifene glucuronidation, G2, UGT1A1, G2, raloxifene 50 μM, 250 μg/ml Supersomes, 1 mM UDPGA, 15 min
[15] = inhibitor 2 μM, raloxifene 50 μM
[16] = inhibitor 5 μM, raloxifene 50 μM
[17] = inhibitor 10 μM, raloxifene 50 μM
[18] = inhibitor 25 μM, raloxifene 50 μM
[19] = inhibitor 50 μM, raloxifene 50 μM
[20] = inhibitor 100 μM, raloxifene 50 μM
[21] = inhibitor 500 μM, raloxifene 50 μM
[22] = liver lot 032101, inhibitor 10 μM
[23] = liver lot 062101, inhibitor 10 μM
[24] = liver lot 083000, inhibitor 10 μM
[25] = raloxifene 50 μM, inhibitor 10 μM
[26] = raloxifene 50 μM, inhibitor 25 μM
[27] = raloxifene 50 μM, inhibitor 50 μM
[28] = raloxifene 50 μM, inhibitor 100 μM

## CC/C(=C(/CC)c1ccc(O)cc1)c1ccc(O)cc1 [Diethylstilbestrol, reference compound]
[1]; [7]
  activity at 15 min, 10 µM: 65%
  activity at 15 min, 25 µM: 32%
  activity at 15 min, 50 µM: 14%
[1]; [8]
  activity at 15 min, 10 µM: 74%
  activity at 15 min, 25 µM: 48%
  activity at 15 min, 50 µM: 21%
[1]; [9]
  activity at 15 min, 10 µM: 65%
  activity at 15 min, 25 µM: 32%
  activity at 15 min, 50 µM: 14%
[1]; [10]
  activity at 15 min, 10 µM: 74%
  activity at 15 min, 25 µM: 48%
  activity at 15 min, 50 µM: 21%
[2]; inhibitor 25 μM
  percentage of control metabolism, 7-HFC glucuronidation: 57 (1) %
  % of control metabolism (SD, n = 3), 7-HFC glucuronidation: 57 (1) %
[2]; inhibitor 50 μM
  percentage of control metabolism, 7-HFC glucuronidation: 34 (2) %
  % of control metabolism (SD, n = 3), 7-HFC glucuronidation: 34 (2) %
[2]; inhibitor 100 μM
  percentage of control metabolism, 7-HFC glucuronidation: 11 (1) %
  % of control metabolism (SD, n = 3), 7-HFC glucuronidation: 11 (1) %
[2]; inhibitor 200 μM
  percentage of control metabolism, 7-HFC glucuronidation: 1 (0) %
  % of control metabolism (SD, n = 3), 7-HFC glucuronidation: 1 (0) %
[2]; inhibitor 500 μM
  percentage of control metabolism, 7-HFC glucuronidation: 0.1 (0) %
  % of control metabolism (SD, n = 3), 7-HFC glucuronidation: 0.1 (0) %
[3]; Supersomes with recombinant human UGT1A1, pH 7.5, probe raloxifene 50 μM, formation of glucuronide G1
  activity at 15 min: 59%
[3]; [11]
  activity at 15 min, 10 µM: 59%
  activity at 15 min, 25 µM: 26%
  activity at 15 min, 50 µM: 12%
[3]; [12]
  activity at 15 min, 25 µM: 26%
  activity at 15 min, 50 µM: 12%
[3]; [13]
  activity at 15 min, 10 µM: 72%
  activity at 15 min, 25 µM: 41%
  activity at 15 min, 50 µM: 27%
[3]; recombinant UGT1A1 Supersomes, pH 7.5, probe raloxifene 50 μM (formation of glucuronide G2)
  activity at 15 min: 72%
[3]; [14]
  activity at 15 min, 25 µM: 41%
  activity at 15 min, 50 µM: 27%
[4]; inhibitor 1 μM
  residual metabolism (% of control), E2-3-β-D-glucuronide: 86 (2) %
  residual metabolism (% of control), E2-17-β-D-glucuronide: 108 (5) %
[4]; inhibitor 10 μM
  residual metabolism (% of control), E2-3-β-D-glucuronide: 53 (4) %
  residual metabolism (% of control), E2-17-β-D-glucuronide: 78 (3) %
[4]; inhibitor 100 μM
  residual metabolism (% of control), E2-3-β-D-glucuronide: 5 (1) %
  residual metabolism (% of control), E2-17-β-D-glucuronide: 24 (4) %
[5]; [15]
  % of control metabolism (SD, n = 3), raloxifene glucuronide G1: 94 (6) %
  % of control metabolism (SD, n = 3), raloxifene glucuronide G2: 107 (5) %
[5]; [16]
  % of control metabolism (SD, n = 3), raloxifene glucuronide G1: 83 (1) %
  % of control metabolism (SD, n = 3), raloxifene glucuronide G2: 109 (1) %
[5]; [17]
  % of control metabolism (SD, n = 3), raloxifene glucuronide G1: 58 (3) %
  % of control metabolism (SD, n = 3), raloxifene glucuronide G2: 111 (7) %
[5]; [18]
  % of control metabolism (SD, n = 3), raloxifene glucuronide G1: 36 (2) %
  % of control metabolism (SD, n = 3), raloxifene glucuronide G2: 100 (5) %
[5]; [19]
  % of control metabolism (SD, n = 3), raloxifene glucuronide G1: 14 (1) %
  % of control metabolism (SD, n = 3), raloxifene glucuronide G2: 58 (2) %
[5]; [20]
  % of control metabolism (SD, n = 3), raloxifene glucuronide G1: 8 (0) %
  % of control metabolism (SD, n = 3), raloxifene glucuronide G2: 43 (0) %
[5]; [21]
  % of control metabolism (SD, n = 3), raloxifene glucuronide G1: 0 (0) %
  % of control metabolism (SD, n = 3), raloxifene glucuronide G2: 0 (0) %
[5]; [22]
  % of control metabolism, raloxifene G1: 70 (2) %
  % of control metabolism, raloxifene G2: 96 (1) %
[5]; [23]
  % of control metabolism, raloxifene G1: 89 (2) %
  % of control metabolism, raloxifene G2: 83 (2) %
[5]; [24]
  % of control metabolism, raloxifene G1: 58 (3) %
  % of control metabolism, raloxifene G2: 111 (7) %
[5]; [25]
  % of control metabolism, raloxifene G1: 58 (3) %
  % of control metabolism, raloxifene G2: 111 (7) %
[5]; [26]
  % of control metabolism, raloxifene G1: 36 (1) %
  % of control metabolism, raloxifene G2: 100 (5) %
[5]; [27]
  % of control metabolism, raloxifene G1: 14 (1) %
  % of control metabolism, raloxifene G2: 58 (2) %
[5]; [28]
  % of control metabolism, raloxifene G1: 8 (0) %
  % of control metabolism, raloxifene G2: 43 (0) %
[6]
  Vmax of 7-HFC glucuronidation (fit of the experiment with this inhibitor): 64 ± 4 nmol/min/mg
[6]; read-out: Km of 7-HFC glucuronidation (fit of the experiment with this inhibitor)
  Km: 87 ± 7 µM

Source: patent publication US20030215462A1, “Use of UGT inhibitors to increase bioavailability” (priority 2001, published 2003)
